Measurements taken from ChEMBL document CHEMBL5113527, “First-in-Class Hydrazide-Based HDAC6 Selective Inhibitor with Potent Oral Anti-Inflammatory Activity by Attenuating NLRP3 Inflammasome Activation” (J Med Chem, 2022).
Activity calls are given as the source filed them. No cut-off for these calls is given here.

Columns and labels:
Mus musculus [1] = assay: Inhibition of LPS-induced endotoxic shock in C57BL/6 mouse model serum assessed as decrease in IL-1beta level at 20 mg/kg, ip measured after 12 hrs; assay type: functional, organism-based
Histone deacetylase 3 = Histone deacetylase 3 (Homo sapiens, UniProt O15379); assay: Binding affinity to recombinant HDAC3 (unknown origin) assessed as inhibition constant using Boc-Lys(acetyl)-AMC as substrate preincubated for 1 hr followed by substrate addition and measured after 2 hrs by fluorescence based microplate reader analysis
J774.A1 [2] = assay: Inhibition of NLRP3 inflammasome activation in mouse J774.A1 cells assessed as cleavage of pro-caspase 1 to p20 measured at 5 to 20 microM after […] by Western blot analysis; assay type: functional, cell-based; conditions: dose 5-20 µM, DDE = dose-dependent effect
[3] = Brain concentration in CD-1 mouse at 20 mg/kg measured after 2 hrs by LC-MS/MS analysis; assay type: ADME, organism-based; conditions: read-out: Ct
Histone deacetylase 9 = Histone deacetylase 9 (Homo sapiens, UniProt Q9UKV0); assay: Inhibition of recombinant HDAC9 (unknown origin) using Boc-Lys (trifluoroacetyl) AMC as substrate preincubated for 1 hr followed by substrate addition and measured after 2 hrs by fluorescence based microplate reader analysis
[4] = target: T1, Protein deacetylase HDAC6 (Homo sapiens, UniProt Q9UBN7); assay: Inhibition of recombinant HDAC6 (unknown origin) using Boc-Lys(acetyl)-AMC as substrate preincubated for 120 mins followed by substrate addition and measured after 2 hrs by fluorescence based microplate reader analysis
T1 sequence (Q9UBN7 whole entry): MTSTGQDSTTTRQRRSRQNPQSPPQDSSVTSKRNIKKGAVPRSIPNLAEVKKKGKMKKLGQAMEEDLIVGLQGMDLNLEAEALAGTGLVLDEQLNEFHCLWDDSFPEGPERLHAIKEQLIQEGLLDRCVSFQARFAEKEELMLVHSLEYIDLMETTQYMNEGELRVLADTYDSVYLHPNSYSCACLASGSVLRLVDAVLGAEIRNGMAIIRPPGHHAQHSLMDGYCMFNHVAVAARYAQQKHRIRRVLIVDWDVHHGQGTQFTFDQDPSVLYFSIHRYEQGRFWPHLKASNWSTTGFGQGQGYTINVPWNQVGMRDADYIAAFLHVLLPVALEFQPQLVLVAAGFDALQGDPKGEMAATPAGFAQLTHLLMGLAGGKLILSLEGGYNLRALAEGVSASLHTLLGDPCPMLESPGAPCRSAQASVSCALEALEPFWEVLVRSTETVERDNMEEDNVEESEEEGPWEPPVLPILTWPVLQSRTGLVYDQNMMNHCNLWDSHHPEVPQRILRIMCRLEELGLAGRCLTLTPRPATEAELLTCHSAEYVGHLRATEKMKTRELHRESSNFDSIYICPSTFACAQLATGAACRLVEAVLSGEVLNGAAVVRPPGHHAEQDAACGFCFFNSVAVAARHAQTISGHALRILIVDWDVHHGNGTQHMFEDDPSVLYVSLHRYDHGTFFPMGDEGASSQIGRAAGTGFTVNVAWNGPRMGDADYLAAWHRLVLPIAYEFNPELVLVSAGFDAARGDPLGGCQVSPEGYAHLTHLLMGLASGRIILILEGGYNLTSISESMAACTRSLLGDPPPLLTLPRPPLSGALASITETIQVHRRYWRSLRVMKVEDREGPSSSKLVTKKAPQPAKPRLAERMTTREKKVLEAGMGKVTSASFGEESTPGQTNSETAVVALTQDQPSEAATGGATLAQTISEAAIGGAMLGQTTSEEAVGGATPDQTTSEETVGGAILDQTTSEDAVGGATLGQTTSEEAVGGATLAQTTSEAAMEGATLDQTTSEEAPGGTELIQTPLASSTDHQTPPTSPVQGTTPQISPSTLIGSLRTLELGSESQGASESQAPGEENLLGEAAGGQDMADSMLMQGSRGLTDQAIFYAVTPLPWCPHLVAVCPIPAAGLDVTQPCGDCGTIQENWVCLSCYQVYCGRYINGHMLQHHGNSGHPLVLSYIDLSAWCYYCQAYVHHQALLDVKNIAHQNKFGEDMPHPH

[5] = AUC(0 to infinity) in CD-1 mouse at 20 mg/kg, po measured after 0.083 to 24 hrs by LC-MS/MS analysis; assay type: ADME, organism-based; design: dose 20 mg/kg, time 0.083-24 hrs, route po; conditions: in vivo
[6] = Ratio of drug concentration in brain to plasma of CD-1 mouse measured after 4 hrs by LC-MS/MS analysis; assay type: ADME; conditions: read-out: BPR
[7] = Oral bioavailability in CD-1 mouse at 20 mg/kg measured after 0.083 to 24 hrs by LC-MS/MS analysis; assay type: ADME, organism-based; conditions: in vivo, time 0.083-24 hrs
[8] = Brain concentration in CD-1 mouse at 20 mg/kg measured after 0.5 hrs by LC-MS/MS analysis; assay type: ADME, organism-based; conditions: read-out: Ct
[9] = Brain concentration in CD-1 mouse at 20 mg/kg measured after 1 hrs by LC-MS/MS analysis; assay type: ADME, organism-based; conditions: read-out: Ct
J774.A1 [10] = assay: Inhibition of HDAC6/dynein interaction in mouse J774.A1 cells measured after 8 hrs by co-immunoprecipitation based Western blotting analysis; assay type: cell-based
Histone deacetylase 1 = Histone deacetylase 1 (Homo sapiens, UniProt Q13547); assay: Inhibition of recombinant HDAC1 (unknown origin) using Boc-Lys(acetyl)-AMC as substrate preincubated for 1 hr followed by substrate addition and measured after 2 hrs by fluorescence based microplate reader analysis
[11] = AUC(0 to infinity) in CD-1 mouse at 5 mg/kg, iv measured after 0.083 to 24 hrs by LC-MS/MS analysis; assay type: ADME, organism-based; design: dose 5 mg/kg, time upper 24 hrs, time lower 0.083 hrs, route iv; conditions: in vivo
[12] = Ratio of drug concentration in brain to plasma of CD-1 mouse measured after 1 hrs by LC-MS/MS analysis; assay type: ADME
[13] = Ratio of drug concentration in brain to plasma of CD-1 mouse measured after 0.5 hrs by LC-MS/MS analysis; assay type: ADME; conditions: read-out: BPR
[14] = target: T1, Protein deacetylase HDAC6; assay: Inhibition of recombinant HDAC6 (unknown origin) using Boc-Lys(acetyl)-AMC as substrate preincubated for 15 mins followed by substrate addition and measured after 2 hrs by fluorescence based microplate reader analysis
[15] = Cmax in CD-1 mouse at 20 mg/kg, po measured after 0.083 to 24 hrs by LC-MS/MS analysis; assay type: ADME, organism-based; design: time 0.083-24 hrs, dose 20 mg/kg, route po; conditions: in vivo
[16] = Cmax in CD-1 mouse at 5 mg/kg, iv measured after 0.083 to 24 hrs by LC-MS/MS analysis; assay type: ADME, organism-based; design: dose 5 mg/kg, time 0.083-24 hrs, route iv; conditions: in vivo
[17] = target: T2, Protein deacetylase HDAC6 (Homo sapiens) (UniProt Q9UBN7); assay: Inhibition of full length recombinant human HDAC6 in MV4-11 cells assessed as accumulation of acetylated alpha-tubulin at 0.1 to 1 uM measured upto 24 hrs by western blot analysis; assay type: cell-based; conditions: dose 0.1-1 µM, DDE = dose-dependent effect
T2 sequence (whole entry): T1 sequence (Q9UBN7 whole entry)

Mus musculus [18] = assay: Inhibition of LPS-induced endotoxic shock in C57BL/6 mouse model serum assessed as decrease in IL-1beta level at 10 mg/kg, ip pretreated for 1 hr followed by LPS addition measured after 12 hrs; assay type: functional, organism-based; conditions: time 13.0 hrs
[19] = Half life in CD-1 mouse at 20 mg/kg, po measured after 0.083 to 24 hrs by LC-MS/MS analysis; assay type: ADME, organism-based; conditions: in vivo, time 0.083-24 hrs

Histone deacetylase 1, sequence (Q13547 whole entry): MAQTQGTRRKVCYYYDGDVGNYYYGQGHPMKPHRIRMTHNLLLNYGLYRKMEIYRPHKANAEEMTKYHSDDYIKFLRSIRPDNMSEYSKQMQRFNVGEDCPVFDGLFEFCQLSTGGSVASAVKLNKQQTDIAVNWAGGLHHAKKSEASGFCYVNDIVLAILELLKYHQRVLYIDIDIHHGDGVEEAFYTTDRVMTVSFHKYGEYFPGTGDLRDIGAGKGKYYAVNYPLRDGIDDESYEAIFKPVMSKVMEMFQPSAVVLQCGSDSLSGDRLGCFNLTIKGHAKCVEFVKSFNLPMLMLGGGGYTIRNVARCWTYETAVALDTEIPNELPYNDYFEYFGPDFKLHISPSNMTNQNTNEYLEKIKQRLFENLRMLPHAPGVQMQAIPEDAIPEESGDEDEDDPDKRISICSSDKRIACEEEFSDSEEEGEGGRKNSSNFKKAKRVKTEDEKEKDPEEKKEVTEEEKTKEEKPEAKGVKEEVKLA
Histone deacetylase 3, sequence (O15379 whole entry): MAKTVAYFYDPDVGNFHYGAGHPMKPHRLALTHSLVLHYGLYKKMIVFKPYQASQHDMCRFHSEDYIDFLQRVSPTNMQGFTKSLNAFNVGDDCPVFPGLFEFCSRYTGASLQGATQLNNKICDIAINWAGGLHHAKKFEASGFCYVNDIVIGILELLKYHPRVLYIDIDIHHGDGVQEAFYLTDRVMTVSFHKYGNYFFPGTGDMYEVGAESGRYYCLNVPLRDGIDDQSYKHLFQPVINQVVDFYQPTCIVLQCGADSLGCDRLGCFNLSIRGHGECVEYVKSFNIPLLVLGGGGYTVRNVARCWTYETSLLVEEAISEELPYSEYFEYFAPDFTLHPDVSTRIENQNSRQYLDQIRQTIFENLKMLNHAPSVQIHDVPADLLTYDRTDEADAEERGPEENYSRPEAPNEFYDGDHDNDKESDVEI
Histone deacetylase 9, sequence (Q9UKV0 whole entry): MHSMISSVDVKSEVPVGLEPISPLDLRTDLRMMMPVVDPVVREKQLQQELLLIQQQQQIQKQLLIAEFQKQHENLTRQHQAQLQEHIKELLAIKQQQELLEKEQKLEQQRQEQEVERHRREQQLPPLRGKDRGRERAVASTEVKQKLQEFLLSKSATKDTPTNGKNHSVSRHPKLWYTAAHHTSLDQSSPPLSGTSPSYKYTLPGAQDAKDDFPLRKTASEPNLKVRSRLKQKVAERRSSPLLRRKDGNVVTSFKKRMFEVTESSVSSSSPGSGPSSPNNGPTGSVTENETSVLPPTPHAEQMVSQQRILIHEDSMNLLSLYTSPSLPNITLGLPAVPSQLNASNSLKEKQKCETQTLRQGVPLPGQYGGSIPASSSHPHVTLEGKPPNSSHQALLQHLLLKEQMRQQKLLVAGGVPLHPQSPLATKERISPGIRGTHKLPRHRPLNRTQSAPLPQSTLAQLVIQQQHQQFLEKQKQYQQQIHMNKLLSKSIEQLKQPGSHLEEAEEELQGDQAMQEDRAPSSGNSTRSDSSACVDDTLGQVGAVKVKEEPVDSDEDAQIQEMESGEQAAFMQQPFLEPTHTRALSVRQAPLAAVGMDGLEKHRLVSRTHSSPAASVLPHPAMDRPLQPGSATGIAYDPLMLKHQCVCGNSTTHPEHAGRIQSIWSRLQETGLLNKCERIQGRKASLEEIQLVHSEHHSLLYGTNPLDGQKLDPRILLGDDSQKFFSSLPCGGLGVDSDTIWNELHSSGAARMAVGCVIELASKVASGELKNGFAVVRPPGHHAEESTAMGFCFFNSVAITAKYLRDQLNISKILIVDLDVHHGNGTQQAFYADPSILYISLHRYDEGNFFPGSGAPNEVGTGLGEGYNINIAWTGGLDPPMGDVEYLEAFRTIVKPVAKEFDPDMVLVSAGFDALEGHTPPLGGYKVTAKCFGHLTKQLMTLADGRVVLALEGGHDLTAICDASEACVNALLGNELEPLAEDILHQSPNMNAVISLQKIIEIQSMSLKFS

Q: What does the source list for `CCNNC(=O)c1ccc(CN2c3ccccc3C=Cc3ccncc32)cc1`?
A: Activity (Mus musculus [1]): Active; Ki (Histone deacetylase 3): 430 nM; Activity (J774.A1 [2]): Dde; concentration at 2 h [3]: 3280 ng/mL; IC50 (Histone deacetylase 9): > 5000 nM; IC50 [4]: 51 nM; AUC(0-inf) [5]: 10300 ng·h/mL; Kp at 4 h [6]: 1.51; bioavailability [7]: 93.4%; concentration at 0.5 h [8]: 11300 ng/mL; concentration at 1 h [9]: 7400 ng/mL; inhibition (J774.A1 [10]): Active; IC50 (Histone deacetylase 1): 1530 nM; AUC(0-inf) [11]: 2760 ng·h/mL; Kp at 1 h [12]: 1.26; Kp at 0.5 h [13]: 1.45; IC50 [14]: 257 nM; Cmax [15]: 5570 ng/mL; Cmax [16]: 4600 ng/mL; inhibition [17]: Dde; Activity (Mus musculus [18]): Active; half-life [19]: 6.8 h
